The nature of series [1]: MTD determination, administered daily for 5 days (preliminary studies for the H460 xenograft model). The following applies: on the basis of weight loss and behavioral signs, female nude mice. The format is in vivo, nude mice (nu/nu). As for the experimental part:
On the basis of the favorable in vitro data for these compounds, their anti-tumor activities in the H460 (NSCLC) human tumor xenograft model were evaluated. H460 cells (lx 10^6) were subcutaneously implanted in the flanks of pathogen-free homozygous female nude mice (nu/nu, Charles River Laboratories). When tumor size reached 100-150 mm^3, animals were randomized to 10 mice per treatment group. All tested compounds were formulated in 5% DMSO, 5% Tween 80 in D5W. The doses of all the compounds were chosen on the basis of preliminary studies to define the MTD of each compound when administered daily for 5 days. On the basis of weight loss and behavioral signs, the MTDs of TH2565 and TH2566 were determined to be 2 mg/kg, respectively. The comparative tumor volume reductions for certain compounds are graphically illustrated in FIGS. 1A-1C.

Series [2] relates to H460 non-cell lung cancer human tumor cell line. Description: In vitro human tumor cell line cytotoxicity (proliferation) assay, AlamarBlue. It is filed as cell-based. The essentials: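 H460 cells (4×10^3/well) attached for 24 h, then were exposed to compound for 2 hours at 37° C. before washout and 70 hrs further growth in fresh medium. Viable cells were measured by AlamarBlue, and IC50 (50% growth inhibition) was determined relative to media-only control.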
Background: Alamar Blue is a resazurin reagent that responds to reducing activity.

The structures appear in SMILES notation. pIC50: −log10 of the molar value. Where two headings read alike, the source gives them in different places.

The term pIC50 denotes the IC50 on a negative log10 scale, so that one unit is a factor of ten. On to `CC(OP(=O)(N1CC1)N1CC1)c1ccc([N+](=O)[O-])cc1` (single isomer, unassigned) [compound 2565], for which the MTD at 5 days in series [1] (nude (nu/nu), mouse, in vivo) came out at 2 mg/kg. Further, the pIC50 in series [2] (Homo sapiens, NCI-H460, read-out: IC50 (N2), H460 cells, under nitrogen, 2 hrs exposure, wash, then 70 hrs growth) was 7.00; in series [2] (Homo sapiens, NCI-H460, read-out: IC50 (air), H460 cells, under air, 2 hrs exposure, wash, then 70 hrs growth), 4.74.
Consider `CC(OP(=O)(N1CC1)N1CC1)c1ccc([N+](=O)[O-])cc1` (single isomer, unassigned) [compound 2566], for which, in series [1], the MTD came to 2 mg/kg. Also, the pIC50 is 7.00 in series [2] (read-out: IC50 (N2), H460 cells, under nitrogen, 2 hrs exposure, wash, then 70 hrs growth) and 4.64 in series [2] (read-out: IC50 (air), H460 cells, under air, 2 hrs exposure, wash, then 70 hrs growth).

For the origin of these results see patent US10668047B2, “Aziridine containing DNA alkylating agents” (priority 2015, dated 2020).
